Experimental findings from ChEMBL document CHEMBL1255297, “Genomewide screening for genes associated with gliotoxin resistance and sensitivity in Saccharomyces cerevisiae” (2008) are described below.

Common to all, as to type: functional
For experiment [1], the system named is Saccharomyces cerevisiae. Briefly: Antimicrobial activity against Saccharomyces cerevisiae containing disruption in CYS3 gene by broth microdilution method. A general note: Dilution methods test growth across graded concentrations, often in twofold steps.
In experiment [2] the test system is Saccharomyces cerevisiae. Briefly: Antimicrobial activity against Saccharomyces cerevisiae containing disruption in APL2 gene by broth microdilution method.
Experiment [3] relates to Saccharomyces cerevisiae. Briefly: Antimicrobial activity against Saccharomyces cerevisiae containing disruption in RTG2 gene by broth microdilution method.
In experiment [4] the test system is Saccharomyces cerevisiae. In words: Antimicrobial activity against Saccharomyces cerevisiae containing disruption in SNF1 gene by broth microdilution method.
Experiment [5] concerns Saccharomyces cerevisiae. In words: Antimicrobial activity against Saccharomyces cerevisiae containing disruption in YGL235W gene by broth microdilution method.
The subject of experiment [6] is Saccharomyces cerevisiae. Briefly: Antimicrobial activity against Saccharomyces cerevisiae containing disruption in YOR345C gene by broth microdilution method.
Experiment [7] has as its system Saccharomyces cerevisiae. Briefly: Antimicrobial activity against Saccharomyces cerevisiae containing disruption in YKL037W gene by broth microdilution method.
For experiment [8], the system named is Saccharomyces cerevisiae. Briefly: Antimicrobial activity against Saccharomyces cerevisiae containing disruption in IFA38 gene by broth microdilution method.
Experiment [9] relates to Saccharomyces cerevisiae. In words: Antimicrobial activity against wild type Saccharomyces cerevisiae BY4741 by broth microdilution method.
Experiment [10] has as its system Saccharomyces cerevisiae. Briefly: Antimicrobial activity against Saccharomyces cerevisiae containing disruption in RAD18 gene by broth microdilution method.
The subject of experiment [11] is Saccharomyces cerevisiae. In words: Antimicrobial activity against Saccharomyces cerevisiae containing disruption in […] gene by broth microdilution method.
Experiment [12] concerns Saccharomyces cerevisiae. In words: Antimicrobial activity against Saccharomyces cerevisiae containing disruption in YLR456W gene by broth microdilution method.
The subject of experiment [13] is Saccharomyces cerevisiae. In words: Antimicrobial activity against Saccharomyces cerevisiae containing disruption in YGL072C gene by broth microdilution method.
Experiment [14] deals with Saccharomyces cerevisiae. Briefly: Antimicrobial activity against Saccharomyces cerevisiae containing disruption in MEF2 gene by broth microdilution method.

Molecules are shown by their SMILES. Values after ≈ are worked out from the molar mass of the structure shown.

Turning to `C[C@@H]1[C@H](O)[C@@H](C)/C=C/C=C/C=C/C=C/C=C/C=C/C=C/[C@H](O[C@@H]2O[C@H](C)[C@@H](O)[C@H](N)[C@@H]2O)C[C@@H]2O[C@](O)(C[C@@H](O)C[C@@H](O)[C@H](O)CC[C@@H](O)C[C@@H](O)CC(=O)O[C@H]1C)C[C@H](O)[C@H]2C(=O)O` [AMPHOTERICIN B], the MIC in the experiment on Saccharomyces cerevisiae [1] came to 0.25 µg/mL (≈ 0.271 µM); against Saccharomyces cerevisiae [2] it was 0.5 µg/mL (≈ 0.541 µM); in the experiment with Saccharomyces cerevisiae [3], 0.5 µg/mL (≈ 0.541 µM); in the experiment with Saccharomyces cerevisiae [4], 0.5 µg/mL (≈ 0.541 µM); against Saccharomyces cerevisiae [5], 0.5 µg/mL (≈ 0.541 µM); with Saccharomyces cerevisiae [6], 0.5 µg/mL (≈ 0.541 µM). The minimum inhibitory concentration (MIC) came out at 0.25 µg/mL (≈ 0.271 µM) against Saccharomyces cerevisiae [7]; 0.5 µg/mL (≈ 0.541 µM) against Saccharomyces cerevisiae [8]; 0.125 µg/mL (≈ 0.135 µM) against Saccharomyces cerevisiae [9]; 0.5 µg/mL (≈ 0.541 µM) in the experiment with Saccharomyces cerevisiae [10]; 0.5 µg/mL (≈ 0.541 µM) with Saccharomyces cerevisiae [11]; 0.5 µg/mL (≈ 0.541 µM) with Saccharomyces cerevisiae [12]. Moreover, the values for the MIC with Saccharomyces cerevisiae [13] and in the experiment with Saccharomyces cerevisiae [14] were 0.5 µg/mL (≈ 0.541 µM) and 0.25 µg/mL (≈ 0.271 µM), respectively.
On to `CN1C(=O)[C@]23CC4=CC=C[C@H](O)[C@H]4N2C(=O)[C@@]1(CO)SS3` [GLIOTOXIN], for which the MIC in the experiment on Saccharomyces cerevisiae [1] was 0.06 µg/mL (≈ 0.184 µM); in the experiment with Saccharomyces cerevisiae [2], 8 µg/mL (≈ 24.5 µM); in the experiment with Saccharomyces cerevisiae [3] it was 8 µg/mL (≈ 24.5 µM); in the experiment with Saccharomyces cerevisiae [4] it was 8 µg/mL (≈ 24.5 µM); with Saccharomyces cerevisiae [5], 8 µg/mL (≈ 24.5 µM); against Saccharomyces cerevisiae [6], 16 µg/mL (≈ 49 µM). Moreover, the MIC against Saccharomyces cerevisiae [7] was determined as 0.125 µg/mL (≈ 0.383 µM); in the experiment with Saccharomyces cerevisiae [8], 2 µg/mL (≈ 6.13 µM); against Saccharomyces cerevisiae [9] it was 0.5 µg/mL (≈ 1.53 µM); in the experiment with Saccharomyces cerevisiae [10], 8 µg/mL (≈ 24.5 µM); in the experiment on Saccharomyces cerevisiae [11], 2 µg/mL (≈ 6.13 µM); in the experiment with Saccharomyces cerevisiae [12], 8 µg/mL (≈ 24.5 µM). Further, the minimum inhibitory concentration (MIC) came out at 16 µg/mL (≈ 49 µM) in the experiment on Saccharomyces cerevisiae [13] and 0.06 µg/mL (≈ 0.184 µM) with Saccharomyces cerevisiae [14].
Turning to `CC[C@H](C)C[C@H](C)CCCCCCCCC(=O)N[C@H]1C[C@@H](O)[C@@H](NCCN)NC(=O)[C@@H]2[C@@H](O)CCN2C(=O)[C@H]([C@H](O)CCN)NC(=O)[C@H]([C@H](O)[C@@H](O)c2ccc(O)cc2)NC(=O)[C@@H]2C[C@@H](O)CN2C(=O)[C@H]([C@@H](C)O)NC1=O` [CASPOFUNGIN], the minimal inhibitory concentration (MIC) was found to be 0.028 µg/mL (≈ 0.0256 µM) in the experiment with Saccharomyces cerevisiae [1]; 0.007 µg/mL (≈ 0.0064 µM) against Saccharomyces cerevisiae [2]; 0.007 µg/mL (≈ 0.0064 µM) in the experiment with Saccharomyces cerevisiae [3]; 0.007 µg/mL (≈ 0.0064 µM) in the experiment with Saccharomyces cerevisiae [4]; 0.007 µg/mL (≈ 0.0064 µM) against Saccharomyces cerevisiae [5]; 0.007 µg/mL (≈ 0.0064 µM) against Saccharomyces cerevisiae [6]. In addition, the MIC in the experiment on Saccharomyces cerevisiae [7] worked out at 0.028 µg/mL (≈ 0.0256 µM); against Saccharomyces cerevisiae [8] it was 0.007 µg/mL (≈ 0.0064 µM); in the experiment with Saccharomyces cerevisiae [9], 0.007 µg/mL (≈ 0.0064 µM); in the experiment on Saccharomyces cerevisiae [10], 0.007 µg/mL (≈ 0.0064 µM); with Saccharomyces cerevisiae [11] it was 0.007 µg/mL (≈ 0.0064 µM); against Saccharomyces cerevisiae [12], 0.007 µg/mL (≈ 0.0064 µM). Moreover, the minimal inhibitory concentration (MIC) stood at 0.007 µg/mL (≈ 0.0064 µM) against Saccharomyces cerevisiae [13] and 0.028 µg/mL (≈ 0.0256 µM) against Saccharomyces cerevisiae [14].
With `OC(Cn1cncn1)(Cn1cncn1)c1ccc(F)cc1F` [FLUCONAZOLE], the MIC in the experiment with Saccharomyces cerevisiae [1] was determined as 32 µg/mL (≈ 104 µM); with Saccharomyces cerevisiae [2], 16 µg/mL (≈ 52.2 µM); with Saccharomyces cerevisiae [3] it was 16 µg/mL (≈ 52.2 µM); against Saccharomyces cerevisiae [4], 16 µg/mL (≈ 52.2 µM); in the experiment on Saccharomyces cerevisiae [5], 16 µg/mL (≈ 52.2 µM); against Saccharomyces cerevisiae [6], 16 µg/mL (≈ 52.2 µM). Moreover, the minimal inhibitory concentration (MIC) against Saccharomyces cerevisiae [7] worked out at 32 µg/mL (≈ 104 µM); against Saccharomyces cerevisiae [8], 16 µg/mL (≈ 52.2 µM); against Saccharomyces cerevisiae [9], 32 µg/mL (≈ 104 µM); against Saccharomyces cerevisiae [10], 16 µg/mL (≈ 52.2 µM); in the experiment with Saccharomyces cerevisiae [11], 16 µg/mL (≈ 52.2 µM); in the experiment with Saccharomyces cerevisiae [12] it was 16 µg/mL (≈ 52.2 µM). The minimal inhibitory concentration (MIC) was 16 µg/mL (≈ 52.2 µM) in the experiment with Saccharomyces cerevisiae [13] and 32 µg/mL (≈ 104 µM) in the experiment on Saccharomyces cerevisiae [14].
As to `C[C@@H]1C[C@@H]([C@H](O)CC2CC(=O)NC(=O)C2)C(=O)[C@@H](C)C1` [CYCLOHEXIMIDE], the MIC in the experiment with Saccharomyces cerevisiae [1], against Saccharomyces cerevisiae [2], in the experiment on Saccharomyces cerevisiae [3], against Saccharomyces cerevisiae [4], against Saccharomyces cerevisiae [5] and with Saccharomyces cerevisiae [6] was 0.025 µg/mL (≈ 0.0889 µM) each time. Further, the minimum inhibitory concentration (MIC) against Saccharomyces cerevisiae [7], against Saccharomyces cerevisiae [8], with Saccharomyces cerevisiae [9], against Saccharomyces cerevisiae [10], against Saccharomyces cerevisiae [11] and against Saccharomyces cerevisiae [12] was 0.025 µg/mL (≈ 0.0889 µM) in each case. Besides, the MIC against Saccharomyces cerevisiae [13] and against Saccharomyces cerevisiae [14] was 0.025 µg/mL (≈ 0.0889 µM) each time.

Usually MIC stands for the lowest concentration found to suppress growth. Read a high MIC as a less susceptible organism.
